The results in this text go back to US11918565B1, “Treatment of post-operative pain via sciatic nerve block with sustained-release liposomal anesthetic compositions” (Pacira Pharmaceuticals, Inc., priority 2022, dated 2024).

In series [1] the test system is subjects undergoing bunionectomy (postsurgical pain, operative foot). The experiment in a line: NRS pain intensity scores after sciatic (popliteal fossa) nerve block, Phase 3 clinical trial #1. The format is in vivo, human. As for the experimental part: Clinical Study #1 was a Phase 3, multicenter, randomized, double-blind, active-controlled study in 180 subjects undergoing bunionectomy. Subjects received a sciatic (in the popliteal fossa) nerve block with a single dose of either […] 266 mg ([…] 133 mg (EXP133), or 0.25% bupivacaine HCl (50 mg; BUP50). The study was conducted in two parts (Part A and Part B). Part A was to be completed and analyzed before enrollment in Part B was initiated. Part A was a 3-arm cohort with 66 subjects undergoing bunionectomy to obtain information on pharmacokinetics (PK), pharmacodynamics (PD), efficacy, and safety. Subjects were randomized (1:1:1) to the EXP266, EXP133, and BUP50 treatment arms. Part B was a 2-arm cohort with 119 subjects undergoing bunionectomy to evaluate the efficacy and safety of […] compared with bupivacaine HCl. The dose of the […] arm in Part B was determined based on the interim analysis of the Part A cohort results. […] An unscheduled pain intensity assessment using the NRS (measured as “On a scale from 0 to 10, where 0 equals no pain and 10 equals the worst possible pain, how much pain are you experiencing in your operative foot right now?”) was to be completed immediately prior to administration of any breakthrough pain medication up to 96 h post-surgery. Medications were administered PRN; opioids were not to be given on a pre-determined schedule. […] All postsurgical analgesics administered, were to be recorded through hospital discharge. […]

Series [2] relates to subjects undergoing bunionectomy. Kind of series: Safety: treatment-emergent adverse events, SAEs, AESIs, vital signs, EKG through POD14, clinical trial #1. The format is in vivo, human. The source says: Safety assessments included monitoring of AEs from the time of randomization through POD 14. Safety endpoints include incidence of treatment-emergent AEs and SAEs from the start of the nerve block procedure through POD 14.
Safety endpoints included incidence of treatment emergent adverse events (AEs) and serious adverse events (SAEs) from start of the nerve block procedure through POD14.
Adverse event verbatim terms are mapped to preferred terms and related system organ class using the Medical Dictionary for Regulatory Activities (MedDRA). Events that start prior to the start of study drug administration are identified in a by-subject listings. Incidence rates of TEAEs and the proportion of subject prematurely withdrawn from the study due to a TEAE is shown for each treatment arm. […] Incidence rates of SAEs is shown for each treatment arm.
An AE that occurred after administration of the study treatment was considered a treatment-emergent adverse event (TEAE). A continuous AE with varying grades of severity was to be recorded as 1 AE. The highest grade of severity experienced by that subject during the course of the continuous AE was to be recorded.
General guidelines are provided below: • Unrelated: A causal relationship between the study drug and the AE could be easily ruled out (e.g., based on the temporal sequence, absence of a reasonable pathophysiological mechanism, or direct evidence of actual cause). • Unlikely: A clinical event with a temporal relationship to study drug administration that made a causal relationship improbable and in which other drugs, chemicals, or underlying disease provided a plausible explanation. • Possible: A clinical event with a reasonable time sequence to administration of the study drug but that could also be explained by a concurrent disease or other drugs or chemicals. • Probable: A clinical event with a reasonable time sequence to administration of the study drug unlikely to be attributed to a concurrent disease or other drugs or chemicals and that followed a clinically reasonable response on withdrawal (dechallenge). • Definite: The pharmacological properties of the study drug(s) or of the substance class, and the course of the AE after dechallenge and, if applicable, after rechallenge, and/or specific test indicated involvement of the study drug(s) in the occurrence/worsening of the AE, and no indication of other causes existed.
Based on review of all peripheral nerve blocks, the following conditions were considered to be Adverse Events of Special Interest (AESIs) upon review of the AEs: • Falls • Persistent tingling • Persistent numbness • Persistent weakness • Hypersensitivity • Seizures • Tremors • Dizziness • Hematoma formation • Cardiovascular depression • Dyspnea • Cardiovascular arrest • Altered sensorium • Visual disturbances • Local anesthetic systemic toxicity
However, death, in and of itself, was not an AE; it was an outcome. The cause of death was the AE.

Setting [3] is: EXP266 Part A, EXP133 and BUP50 Part A+B.

Structures can show the parent of a compound that is named as a salt.

With `CCCCN1CCCCC1C(=O)Nc1c(C)cccc1C` (stereo not drawn) [BUP50, bupivacaine HCl], in series [1] (setting [3]), the “mean AUC of average pain over the last 24 h post-surgery from POD1 through POD4” value was determined as 16.1 and the “mean AUC of worst pain over the last 24 h post-surgery from POD1 through POD4” value is given as 25.2. The “time post-surgery at which mean current pain intensity peaked” value in series [1] (post-surgery) worked out at 36 h. The “subjects with a clinically significant abnormal EKG finding” value in series [2] (EXP133 on POD2, BUP50 on POD1) is 1 subject. Also, in series [2] (EXP266: hypertension and pyrexia, BUP50: atrioventricular block second degree, both discontinued), the “subjects with treatment-emergent SAEs related to study drug” value is recorded as 1 subject. Also, the “proportion of subjects with a treatment-related TEAE” value in series [2] (setting [3]) is 2.4%. Further, the “subjects that had SAEs” value in series [2] (EXPAREL (266 mg), bupivacaine HCl) is 1 subject. In series [2] (human, in vivo), the “AESI of atrioventricular block second degree considered possibly related to study drug” value was determined as 1 subject; the “AESI of muscular weakness considered possibly related to study drug” value is 1 subject; the “TEAE constipation, subjects” value came out at 31.7%; the “TEAE nausea, subjects” value is on record as 23.2%. In addition, in series [2] (human, in vivo), the “number of subjects with ≥1 TEAE related to study drug” value is 2 subjects, the “subjects who had ≥1 AESI” value amounted to 4 subjects and the “subjects with a moderate TEAE” value was found to be 12.2%. Also, the “proportion of subjects who reported TEAEs” value in series [2] (through POD14) came to 54.9%.
